# According to ChEMBL document CHEMBL1201862, “PubChem BioAssay data set” (2004):
# Active and inactive are the calls of the source.
# Key:
# Escherichia coli = test: microbe, parasite or virus in culture
# [1] = inhibitors of intracellular T. cruzi replication, confirmation, NIH3T3 host cells, beta-gal luminescence (AID 2044); format: functional, cell-based;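 note: intracellular parasites grown in NIH/3T3 mouse fibroblasts as host cells; luminescent beta-galactosidase reporter signal from transgenic T. cruzi replicating inside host cells; inhibitors lower the luminescence signal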
# [2] = microbe, parasite or virus in culture; format: functional; conditions: Mycobacterium tuberculosis
# [3] = cytotoxicity toward NIH3T3 fibroblasts, dose response, counter-screen, cell-based, ATP luminescence, mouse fibroblasts (AID 2010); format: functional;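 note: cells exposed to compound for about 90 hours before reading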
# [4] = Luminescence Cell-Based Dose Retest to Confirm Inhibitors of Cancer Stem Cells. [Related pubchem assays (depositor defined):AID2717, AID2721]; format: functional; conditions: Homo sapiens
# [5] = cytotoxicity in HMLE control line with eGFP shRNA, dose response, counter-screen for HMLE_sh_ECad selective toxicity project, cell-based, HMLE_sh_eGFP, luminescence (AID 463074); format: functional, Homo sapiens;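 note: HMLE human mammary epithelial cells expressing control shRNA against eGFP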
# Cytochrome P450 2D6 = Cytochrome P450 2D6 (Homo sapiens, UniProt P10635);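 note: CYP2D6 member of a cytochrome P450 panel assay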
# Sequence of Cytochrome P450 2D6 (P10635 whole entry, the tested form may be a part): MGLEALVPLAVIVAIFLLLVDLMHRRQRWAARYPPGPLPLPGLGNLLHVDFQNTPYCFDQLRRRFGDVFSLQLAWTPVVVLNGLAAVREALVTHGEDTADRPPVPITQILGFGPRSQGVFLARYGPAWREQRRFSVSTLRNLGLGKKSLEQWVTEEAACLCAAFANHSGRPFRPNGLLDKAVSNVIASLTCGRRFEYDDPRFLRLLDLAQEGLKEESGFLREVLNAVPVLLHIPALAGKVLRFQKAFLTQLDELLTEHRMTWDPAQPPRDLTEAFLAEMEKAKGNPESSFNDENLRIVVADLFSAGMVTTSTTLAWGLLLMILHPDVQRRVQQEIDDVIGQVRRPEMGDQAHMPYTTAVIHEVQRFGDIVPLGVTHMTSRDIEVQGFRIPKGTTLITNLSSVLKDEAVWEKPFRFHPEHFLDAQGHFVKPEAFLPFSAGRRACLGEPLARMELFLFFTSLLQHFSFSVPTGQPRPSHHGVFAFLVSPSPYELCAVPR
# Hexokinase-1 = molecular target: T1, Hexokinase-1 (Homo sapiens, UniProt P19367); test: SAR analysis of small molecule inhibitors of hexokinase domain containing I (HKDC1) in the hexokinase 1 selectivity assay. [Related pubchem assays (depositor defined):AID493160, AID493190]; format: functional
# T1 sequence (P19367 whole entry): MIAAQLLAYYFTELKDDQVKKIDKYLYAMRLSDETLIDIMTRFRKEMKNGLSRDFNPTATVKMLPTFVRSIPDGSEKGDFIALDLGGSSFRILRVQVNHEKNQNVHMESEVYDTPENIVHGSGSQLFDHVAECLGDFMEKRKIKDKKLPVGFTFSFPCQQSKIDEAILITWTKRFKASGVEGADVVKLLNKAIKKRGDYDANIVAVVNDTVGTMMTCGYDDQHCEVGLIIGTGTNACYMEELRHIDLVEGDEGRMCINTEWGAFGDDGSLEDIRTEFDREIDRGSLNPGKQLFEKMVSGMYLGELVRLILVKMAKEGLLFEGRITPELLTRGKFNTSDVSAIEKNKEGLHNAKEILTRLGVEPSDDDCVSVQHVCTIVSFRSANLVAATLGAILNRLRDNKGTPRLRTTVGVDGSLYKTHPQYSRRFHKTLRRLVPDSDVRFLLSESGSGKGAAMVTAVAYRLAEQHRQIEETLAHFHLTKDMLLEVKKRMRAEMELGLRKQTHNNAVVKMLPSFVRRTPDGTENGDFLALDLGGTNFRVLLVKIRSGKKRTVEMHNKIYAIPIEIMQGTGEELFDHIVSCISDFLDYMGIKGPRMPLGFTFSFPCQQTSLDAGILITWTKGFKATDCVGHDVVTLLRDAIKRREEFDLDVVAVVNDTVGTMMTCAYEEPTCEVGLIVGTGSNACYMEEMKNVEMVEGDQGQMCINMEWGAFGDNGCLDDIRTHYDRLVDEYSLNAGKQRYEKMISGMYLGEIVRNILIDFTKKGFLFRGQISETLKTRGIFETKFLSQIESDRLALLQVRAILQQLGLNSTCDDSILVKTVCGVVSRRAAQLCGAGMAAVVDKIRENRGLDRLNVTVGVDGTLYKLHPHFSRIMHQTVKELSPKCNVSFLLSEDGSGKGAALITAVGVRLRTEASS
# Hexokinase HKDC1 = molecular target: T2, Hexokinase HKDC1 (Homo sapiens, UniProt Q2TB90); test: SAR analysis of small molecule inhibitors of hexokinase domain containing I (HKDC1). [Related pubchem assays (depositor defined):AID493160, AID493190]; format: functional
# T2 sequence (Q2TB90 whole entry): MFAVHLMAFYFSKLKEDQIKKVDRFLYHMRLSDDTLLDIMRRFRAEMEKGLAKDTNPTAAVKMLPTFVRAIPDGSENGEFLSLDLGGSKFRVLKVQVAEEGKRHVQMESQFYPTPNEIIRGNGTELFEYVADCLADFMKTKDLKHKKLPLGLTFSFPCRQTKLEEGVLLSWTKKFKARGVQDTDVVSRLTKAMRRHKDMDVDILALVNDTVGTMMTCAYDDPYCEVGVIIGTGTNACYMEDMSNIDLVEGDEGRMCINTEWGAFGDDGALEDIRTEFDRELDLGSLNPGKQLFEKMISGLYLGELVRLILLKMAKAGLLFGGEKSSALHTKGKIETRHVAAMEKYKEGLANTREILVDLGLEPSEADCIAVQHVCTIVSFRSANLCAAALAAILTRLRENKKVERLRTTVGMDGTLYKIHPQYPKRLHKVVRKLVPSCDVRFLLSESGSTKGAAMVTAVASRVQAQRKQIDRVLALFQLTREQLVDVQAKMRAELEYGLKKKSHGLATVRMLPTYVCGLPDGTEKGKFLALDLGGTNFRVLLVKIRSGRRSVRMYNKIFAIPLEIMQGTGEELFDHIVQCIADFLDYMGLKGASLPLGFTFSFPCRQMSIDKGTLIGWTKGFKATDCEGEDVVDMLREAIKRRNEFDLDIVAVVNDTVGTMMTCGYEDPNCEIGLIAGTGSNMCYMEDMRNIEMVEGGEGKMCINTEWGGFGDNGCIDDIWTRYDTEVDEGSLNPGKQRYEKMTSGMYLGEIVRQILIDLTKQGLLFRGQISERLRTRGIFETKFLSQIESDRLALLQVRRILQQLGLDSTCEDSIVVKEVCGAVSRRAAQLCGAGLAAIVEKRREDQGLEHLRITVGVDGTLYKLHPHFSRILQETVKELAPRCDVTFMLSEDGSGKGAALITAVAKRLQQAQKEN
# [6] = NIH-3T3 fibroblast cytotoxicity, dose response, cytotoxicity control, cell-based, fluorescence, Alamar Blue, secondary assay (AID 2327); format: functional;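 note: NIH-3T3 mouse fibroblasts cultured with fluconazole at 8 µg/mL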
# [7] = C. albicans growth with fluconazole, confirmation, fluorescence, retest (AID 2467); format: functional, cell-based
# [8] = molecular target: Serine/threonine-protein phosphatase (Candida dubliniensis (strain CD36 / CBS 7987 / NCPF 3949 / NRRLY-17841) (Yeast), UniProt B9W6M3); test: calcineurin pathway inhibitors in yeast reporter, dose response, S. cerevisiae, CDRE-lacZ, luminescence, secondary (AID 2388); format: functional, cell-based;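 note: yeast reporter cells carrying a calcineurin-responsive lacZ construct stimulated with calcium chloride; luminescent beta-galactosidase reporter signal in whole cells rather than isolated phosphatase activity; potency for inhibition where a drop in reporter signal means calcineurin blockade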
# Sequence of Serine/threonine-protein phosphatase (B9W6M3 whole entry): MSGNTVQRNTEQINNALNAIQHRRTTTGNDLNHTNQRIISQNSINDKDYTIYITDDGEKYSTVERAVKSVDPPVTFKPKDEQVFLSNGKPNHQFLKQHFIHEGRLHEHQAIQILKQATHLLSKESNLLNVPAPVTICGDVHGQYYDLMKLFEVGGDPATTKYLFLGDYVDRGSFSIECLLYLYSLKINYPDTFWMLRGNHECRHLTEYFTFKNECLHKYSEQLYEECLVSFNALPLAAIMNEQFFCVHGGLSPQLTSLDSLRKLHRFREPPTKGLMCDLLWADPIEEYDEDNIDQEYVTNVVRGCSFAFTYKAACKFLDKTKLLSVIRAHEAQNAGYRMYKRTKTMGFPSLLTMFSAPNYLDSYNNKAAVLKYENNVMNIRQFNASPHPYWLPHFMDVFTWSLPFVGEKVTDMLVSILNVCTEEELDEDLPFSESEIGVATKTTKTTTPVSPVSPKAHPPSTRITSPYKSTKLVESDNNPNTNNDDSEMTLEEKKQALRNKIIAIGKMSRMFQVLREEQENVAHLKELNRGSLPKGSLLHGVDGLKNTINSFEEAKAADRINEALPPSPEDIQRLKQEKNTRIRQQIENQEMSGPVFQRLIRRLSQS
# [9] = molecular target: ATP-dependent molecular chaperone HSP82 (Candida albicans (strain WO-1) (Yeast), UniProt C4YTQ8); test: loss of DOC-induced GRE-beta-galactosidase reporter signal, dose response, Hsp90 inhibitor project, S. cerevisiae, luminescence (AID 2400); format: functional, cell-based;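 note: beta-galactosidase luminescence from glucocorticoid response element reporter as proxy for Hsp90 function; inhibitor potency where signal loss means Hsp90 inhibition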
# Sequence of ATP-dependent molecular chaperone HSP82 (C4YTQ8 whole entry): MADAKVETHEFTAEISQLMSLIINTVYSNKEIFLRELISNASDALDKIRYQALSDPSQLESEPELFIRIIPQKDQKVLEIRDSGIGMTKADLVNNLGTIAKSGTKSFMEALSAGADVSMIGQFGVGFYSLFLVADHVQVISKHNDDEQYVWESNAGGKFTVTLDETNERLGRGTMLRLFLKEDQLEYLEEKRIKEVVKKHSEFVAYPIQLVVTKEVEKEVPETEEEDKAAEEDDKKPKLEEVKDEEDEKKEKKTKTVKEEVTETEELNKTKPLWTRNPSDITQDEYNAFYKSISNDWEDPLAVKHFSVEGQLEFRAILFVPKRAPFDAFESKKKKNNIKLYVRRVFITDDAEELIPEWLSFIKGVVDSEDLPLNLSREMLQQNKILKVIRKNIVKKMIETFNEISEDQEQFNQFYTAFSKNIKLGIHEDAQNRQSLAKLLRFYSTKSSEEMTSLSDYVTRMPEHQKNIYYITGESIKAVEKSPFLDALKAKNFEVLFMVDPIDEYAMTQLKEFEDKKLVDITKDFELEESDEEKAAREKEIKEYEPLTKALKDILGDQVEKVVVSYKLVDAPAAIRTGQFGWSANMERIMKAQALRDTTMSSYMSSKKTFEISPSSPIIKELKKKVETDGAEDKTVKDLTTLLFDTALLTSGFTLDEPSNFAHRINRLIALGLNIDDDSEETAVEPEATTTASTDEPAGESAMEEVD
# HEK293 [10] = test: NOD1 signaling inhibitors, primary screen, cell-based, luminescence, uHTS (AID 1578); format: functional; conditions: Homo sapiens
# HEK293 [11] = test: cells; format: functional, cell-based; conditions: Homo sapiens
# HEK293 [12] = test: cells; format: functional, cell-based; conditions: Homo sapiens; remark: listed apart in the source
# HEK293 [13] = test: NOD2 signaling inhibitors in MDP-stimulated cells, cell-based, uHTS, luminescence (AID 2001); format: functional; conditions: Homo sapiens
# [14] = growth suppression of PTEN-null colon cells, dose response, cell-based, HCT116 PTEN knockout (AID 1047); format: functional;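 note: HCT116 colon tumor cells with PTEN knocked out; cells exposed to compound for 60 hours before readout; potency for loss of cell viability measured by luminescence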
# [15] = growth suppression of beta-catenin-knockout colon cells, dose response, cell-based, HCT116, human colon tumor (AID 1045); format: functional;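 note: HCT116 colon tumor cells with beta catenin knocked out; cells exposed to compound for 60 hours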
# [16] = molecular target: T3, Apoptotic protease-activating factor 1 (Homo sapiens, UniProt O14727); format: functional
# T3 sequence (O14727 whole entry): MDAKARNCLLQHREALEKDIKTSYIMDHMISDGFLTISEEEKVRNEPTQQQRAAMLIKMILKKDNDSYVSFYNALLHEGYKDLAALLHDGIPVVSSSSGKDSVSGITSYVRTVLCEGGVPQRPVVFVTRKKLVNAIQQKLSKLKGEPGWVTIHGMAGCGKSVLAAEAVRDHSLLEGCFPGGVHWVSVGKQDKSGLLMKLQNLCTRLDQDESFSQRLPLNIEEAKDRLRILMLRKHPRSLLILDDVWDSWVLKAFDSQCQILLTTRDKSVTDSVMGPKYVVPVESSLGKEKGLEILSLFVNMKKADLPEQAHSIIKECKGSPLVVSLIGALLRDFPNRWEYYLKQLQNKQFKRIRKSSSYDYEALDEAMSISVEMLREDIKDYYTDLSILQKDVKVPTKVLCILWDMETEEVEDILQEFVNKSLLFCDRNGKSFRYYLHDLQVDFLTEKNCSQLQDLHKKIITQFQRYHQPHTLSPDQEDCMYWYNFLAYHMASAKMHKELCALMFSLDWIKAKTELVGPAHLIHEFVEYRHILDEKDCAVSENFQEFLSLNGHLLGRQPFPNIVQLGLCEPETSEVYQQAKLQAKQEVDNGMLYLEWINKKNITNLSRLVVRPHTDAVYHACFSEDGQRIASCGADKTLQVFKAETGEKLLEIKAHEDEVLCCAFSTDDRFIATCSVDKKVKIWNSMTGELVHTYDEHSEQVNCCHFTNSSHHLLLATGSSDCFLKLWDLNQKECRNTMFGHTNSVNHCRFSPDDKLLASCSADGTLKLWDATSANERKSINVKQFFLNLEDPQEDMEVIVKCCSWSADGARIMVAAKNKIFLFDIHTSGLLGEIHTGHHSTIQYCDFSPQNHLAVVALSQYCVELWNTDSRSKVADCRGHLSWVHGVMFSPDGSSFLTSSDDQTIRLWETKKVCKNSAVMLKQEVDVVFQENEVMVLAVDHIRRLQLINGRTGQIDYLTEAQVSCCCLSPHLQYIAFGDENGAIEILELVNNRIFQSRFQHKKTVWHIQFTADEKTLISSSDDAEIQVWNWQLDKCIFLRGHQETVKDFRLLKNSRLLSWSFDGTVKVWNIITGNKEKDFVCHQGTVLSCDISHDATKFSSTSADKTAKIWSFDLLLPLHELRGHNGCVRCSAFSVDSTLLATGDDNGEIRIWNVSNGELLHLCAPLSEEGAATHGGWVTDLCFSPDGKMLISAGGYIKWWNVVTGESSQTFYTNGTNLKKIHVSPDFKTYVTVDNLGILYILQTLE
# INS1 = test: beta cell apoptosis inhibitors, cytokine rescue, dose response, luminescence, retest (AID 449756); format: functional, cell-based; conditions: Rattus norvegicus;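 note: cell death triggered by IL-1 beta plus TNF-alpha plus IFN-gamma mixture; protective hits raise ATP signal compared with cytokine alone wells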
# Cytochrome P450 2C19 = Cytochrome P450 2C19 (Homo sapiens, UniProt P33261); test: Cytochrome panel assay with activity outcomes. Panel member name: p450-cyp2c19 Compounds with AC50 equal or less than 10 uM are considered active; format: functional
# Sequence of Cytochrome P450 2C19 (P33261 whole entry): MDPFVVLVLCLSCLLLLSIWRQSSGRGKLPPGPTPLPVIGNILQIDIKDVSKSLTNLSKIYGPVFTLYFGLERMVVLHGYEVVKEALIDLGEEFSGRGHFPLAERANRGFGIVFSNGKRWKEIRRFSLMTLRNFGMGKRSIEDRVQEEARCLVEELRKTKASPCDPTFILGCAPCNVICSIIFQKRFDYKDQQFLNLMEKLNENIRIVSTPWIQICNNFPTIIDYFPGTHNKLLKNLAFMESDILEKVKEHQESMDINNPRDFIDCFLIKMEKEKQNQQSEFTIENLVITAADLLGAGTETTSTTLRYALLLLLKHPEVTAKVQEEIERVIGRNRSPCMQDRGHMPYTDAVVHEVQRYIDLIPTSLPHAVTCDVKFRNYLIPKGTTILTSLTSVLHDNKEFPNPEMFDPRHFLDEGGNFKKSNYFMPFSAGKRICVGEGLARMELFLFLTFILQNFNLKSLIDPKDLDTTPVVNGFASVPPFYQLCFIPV
# Beta-galactosidase = Beta-galactosidase (Escherichia coli, UniProt Q8VNN2); test: PubChem AID 485352; format: functional
# Sequence of Beta-galactosidase (Q8VNN2 whole entry): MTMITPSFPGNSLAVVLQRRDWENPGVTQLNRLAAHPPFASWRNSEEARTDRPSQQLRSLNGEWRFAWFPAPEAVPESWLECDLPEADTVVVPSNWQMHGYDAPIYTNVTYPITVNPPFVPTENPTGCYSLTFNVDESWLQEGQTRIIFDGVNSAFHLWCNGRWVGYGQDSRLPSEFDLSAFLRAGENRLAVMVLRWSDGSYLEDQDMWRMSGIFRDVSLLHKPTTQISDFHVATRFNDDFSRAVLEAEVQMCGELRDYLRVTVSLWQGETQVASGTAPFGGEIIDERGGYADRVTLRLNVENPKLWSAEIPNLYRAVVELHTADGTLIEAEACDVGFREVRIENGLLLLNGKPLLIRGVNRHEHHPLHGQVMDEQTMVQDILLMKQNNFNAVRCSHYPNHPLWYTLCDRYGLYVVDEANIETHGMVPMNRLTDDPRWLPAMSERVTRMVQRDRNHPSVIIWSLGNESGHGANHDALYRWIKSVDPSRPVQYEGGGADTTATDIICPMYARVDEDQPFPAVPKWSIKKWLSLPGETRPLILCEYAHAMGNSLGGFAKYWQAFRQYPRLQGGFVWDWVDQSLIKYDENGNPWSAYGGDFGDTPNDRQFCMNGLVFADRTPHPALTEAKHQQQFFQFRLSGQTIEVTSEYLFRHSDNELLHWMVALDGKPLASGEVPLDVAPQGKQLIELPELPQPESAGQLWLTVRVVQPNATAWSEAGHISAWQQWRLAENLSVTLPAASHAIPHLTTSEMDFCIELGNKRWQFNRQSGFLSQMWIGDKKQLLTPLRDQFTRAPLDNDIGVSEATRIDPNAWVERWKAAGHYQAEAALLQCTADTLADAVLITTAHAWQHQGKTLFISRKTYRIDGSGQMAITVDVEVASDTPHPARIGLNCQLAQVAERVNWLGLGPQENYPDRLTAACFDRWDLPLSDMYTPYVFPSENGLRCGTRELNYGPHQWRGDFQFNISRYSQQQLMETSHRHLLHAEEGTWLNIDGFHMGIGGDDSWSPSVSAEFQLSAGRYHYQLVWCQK
# [17] = molecular target: T4, Type-1 angiotensin II receptor (Homo sapiens, UniProt P30556); test: AT1 receptor antagonists, dose response, selectivity assay for APJ receptor antagonist project, cell-based, uHTS hits (AID 463214); format: functional;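 note: antagonist potency against angiotensin II stimulated AT1 response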
# T4 sequence (P30556 whole entry): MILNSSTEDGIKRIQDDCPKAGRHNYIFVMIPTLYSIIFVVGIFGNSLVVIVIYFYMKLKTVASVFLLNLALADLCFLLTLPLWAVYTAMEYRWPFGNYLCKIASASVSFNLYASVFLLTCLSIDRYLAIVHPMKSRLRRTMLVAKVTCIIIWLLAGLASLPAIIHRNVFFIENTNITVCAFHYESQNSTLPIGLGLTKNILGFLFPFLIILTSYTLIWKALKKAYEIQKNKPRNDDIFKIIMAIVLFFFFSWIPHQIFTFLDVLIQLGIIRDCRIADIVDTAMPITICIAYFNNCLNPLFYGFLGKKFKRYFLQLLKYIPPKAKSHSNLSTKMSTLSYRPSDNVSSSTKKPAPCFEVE
# [18] = molecular target: T5, Polyadenylate-binding protein 1 (Homo sapiens, UniProt P11940); test: PABP1 MLLE–PAM2 interaction inhibitors, dose response, miRNA deadenylation inhibitor project, biochemical, fluorescence polarization, Cy5-PAM2 peptide, secondary (AID 602260); format: functional; conditions: read-out: IC50_Mean
# T5 sequence (P11940 whole entry): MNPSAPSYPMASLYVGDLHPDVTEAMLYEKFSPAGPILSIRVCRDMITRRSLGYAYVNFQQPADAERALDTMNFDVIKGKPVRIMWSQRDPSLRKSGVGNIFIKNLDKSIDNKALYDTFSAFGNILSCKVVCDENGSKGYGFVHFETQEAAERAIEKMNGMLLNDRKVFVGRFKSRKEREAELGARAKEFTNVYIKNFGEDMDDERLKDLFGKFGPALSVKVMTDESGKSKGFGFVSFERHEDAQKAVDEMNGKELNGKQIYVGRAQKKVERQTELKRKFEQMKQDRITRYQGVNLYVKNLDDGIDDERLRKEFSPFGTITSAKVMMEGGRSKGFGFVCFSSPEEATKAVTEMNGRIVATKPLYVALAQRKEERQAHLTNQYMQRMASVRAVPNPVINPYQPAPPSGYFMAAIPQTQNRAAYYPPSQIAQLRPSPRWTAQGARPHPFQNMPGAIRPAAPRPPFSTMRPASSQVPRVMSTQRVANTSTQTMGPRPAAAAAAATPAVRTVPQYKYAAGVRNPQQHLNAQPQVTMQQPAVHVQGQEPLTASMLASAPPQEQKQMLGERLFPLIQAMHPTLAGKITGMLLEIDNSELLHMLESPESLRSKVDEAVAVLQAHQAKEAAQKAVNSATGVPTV
# [19] = molecular target: T5, Polyadenylate-binding protein 1; test: PABP1 MLLE–PAM2 binding inhibitor potency, dose response, biochemical, fluorescence polarization, FITC-PAM2 peptide (AID 602259); format: functional; conditions: read-out: IC50_Mean
smiles,measurement,setting,value
CC(C)(C)CC(=O)Nc1cccc(-c2cn3cccnc3n2)c1,AC50,Escherichia coli,45.2 µM (active)
CN(C)S(=O)(=O)c1cccc(NC(=O)CSc2cccc3cccnc23)c1,EC50,[1],802 nM (active)
same,CC50,[2],> 40 µM (active)
same,EC50,[3],4.3 µM (active)
same,AC50,[4],12.6 µM (active)
same,AC50,[5],36.2 µM (active)
Cl.N=C(N)N/N=C\c1cnn(C(=N)N)c1,AC50,Cytochrome P450 2D6,inconclusive
Cc1ccc(Cn2c(/C=C/c3cccnc3)nc3ccccc3c2=O)cc1,IC50,Hexokinase-1,> 80 µM (inactive)
same,IC50,Hexokinase HKDC1,> 80 µM (inactive)
CCOc1ccc(/C=C/C2=CC(C)(C)NC(S)=N2)cc1,EC50,[6],17.1 µM (active)
same,EC50,[7],1.95 µM (active)
same,EC50,[8],> 180 µM (inactive)
same,EC50,[9],> 150 µM (inactive)
CCCCCCc1cc2cc(-c3nnc(-c4ccccc4O)o3)c(=O)oc2cc1O,EC50,HEK293 [10],4.51 µM (active)
same,IC50,HEK293 [11],3.37 µM (active)
same,IC50,HEK293 [12],> 20 µM (inactive)
same,IC50,HEK293 [13],4.36 µM (inactive)
same,EC50,[14],13 µM (active)
same,EC50,[15],11.2 µM (active)
same,IC50,[16],89 µM (active)
same,AC50,INS1,7.17 µM (active)
CC1CCN(C2=NN3C(=N)/C(=C\c4ccc(OC(=O)c5ccco5)cc4)C(=O)N=C3S2)CC1,AC50,[4],14.6 µM (active)
same,AC50,[5],25.4 µM (active)
O=C(O)CCCc1ccc2ccc3ccccc3c2c1,AC50,Cytochrome P450 2C19,inconclusive
same,AC50,Cytochrome P450 2D6,inconclusive
O=C(CSc1nc2ccccc2[nH]1)Nc1cccc(S(=O)(=O)N2CCOCC2)c1,IC50,Hexokinase-1,> 80 µM (inactive)
same,IC50,Hexokinase HKDC1,> 80 µM (inactive)
Cc1cc(O)ccc1NC(=S)NC(=O)c1cncc(Br)c1,EC50,[6],> 160 µM (inconclusive)
same,EC50,Beta-galactosidase,> 40 µM (inactive)
same,EC50,[7],1.05 µM (active)
same,IC50,[17],10.5 µM (active)
same,EC50,[8],> 180 µM (inactive)
same,EC50,[9],> 160 µM (inactive)
same,IC50,[18],> 66 µM (inactive)
same,IC50,[19],> 66 µM (inactive)
